Converted amounts (≈) assume the structure as drawn. Where two headings read alike, the source gives them in different places.
How the values were obtained:
Epstein-Barr virus (EBV) = test: Human cord blood lymphocyte transformation assay; type: cell-based, Epstein-Barr (B95-8); human cord blood lymphocytes; conditions: human gammaherpesvirus 4, B-95-8; B95-8, lymphocyte transformation; read-out: Minimum Effective Concentration
Source text: ^c Human cord blood lymphocyte transformation assay.

[1] = test system: human cytomegalovirus, strain AD169; test: Plaque inhibition, cytomegalovirus on MRC5 cells (Table V); type: cell-based, human cytomegalovirus; MRC5 (human diploid lung) cells
Recombinant 6-34 = test: Drug sensitivity of HSV-1/HSV-2 intertypic Recombinant 6-34; conditions: for EC50: read-out: ED50
Vaccinia = test: microbe, parasite or virus in culture; type: cell-based, vaccinia; MRC5 (human diploid lung) cells; conditions: for EC50: Orthopoxvirus vaccinia, MRC5, read-out: ED50, concentration required for 50% plaque inhibition
[2] = test system: Herpes simplex virus type I (HSV-1), strain Schooler; test: Treatment of Herpes simplex virus infection in mice, intraperitoneal HSV-1, subcutaneous treatment (Table II); type: in vivo, HSV-1; ICR/Ha mice; conditions: for Percent Survival: at 15 days
Recombinant 6-30 = test: Drug sensitivity of HSV-1/HSV-2 intertypic Recombinant 6-30; conditions: for EC50: read-out: ED50
[3] = Comparative solubilities in pH 7.2 buffer at 25°; type: physicochemical; conditions: for solubility: aqueous buffer, pH 7.2 phosphate buffer, 25°
Procedure: Comparative Solubilities in pH 7.2 Buffer at 25°
Solubilities were determined by suspending an excess amount of the compound in approximately 0.15 molar phosphate buffer (pH 7.2) and shaking overnight in a water bath at 25° to give a saturated solution. The concentration of the compound in the filtered solution was calculated on the basis of spectrophotometric measurements, i.e. comparison of the ultraviolet absorbance at the λmax for the saturated solution with the absorbance value observed for a known concentration of the compound.

[4] = test system: Varicella-Zoster virus, strain KMcC; test: Plaque inhibition, Varicella Zoster virus on MRC5 cells (Table V); type: cell-based, Varicella-Zoster virus; MRC5 (human diploid lung) cells
[5] = test system: guanosine monophosphate kinase and extract of HSV1-infected HeLa cells; type: biochemical; conditions: gmp kinase, 4 h
Procedure: To the rest of the incubation mixtures were now added 0.04 units of guanosine monophosphate kinase and 20 μl of an extract of HSV1-infectedHeLa cells [The cells were infected with the virus at a multiplicity of 10 and harvested 8 hours later; they were suspended in a solution containing 0.35M KH2 PO4, pH 7.5, 0.5 mM dithiothreitol, 0.2% polyoxyethylene(9)octylphenol (Nonidet P-40), 14% glycerol at 50 mg/ml and after 30 minutes at 4° were centrifuged at […]; the supernatant liquid was the crude extract.] Incubation was continued at 30° for 4 more hours, after which samples were analyzed by HPLC and the amount of the triphosphate derivatives of each compound determined by integration of the area under the respective chromatographic peak.

Recombinant 6-26 = test: Drug sensitivity of HSV-1/HSV-2 intertypic Recombinant 6-26; conditions: for EC50: read-out: ED50
[6] = test system: HSV-1 wild type Strain 17; test: Drug sensitivity of HSV-1 wild type Strain 17; conditions: for EC50: Human alphaherpesvirus 1, read-out: ED50
Recombinant 6-19 = test: Drug sensitivity of HSV-1/HSV-2 intertypic Recombinant 6-19; conditions: for EC50: read-out: ED50
HSV-2 = test: Therapeutic efficacy against vaginal HSV-2 infection of mice (Table VII); type: in vivo, HSV-2; mice; conditions: for Survivors/Total: 0.55 μmoles oral gavage twice daily; for therapeutic effectiveness, treatment initiated up to 72 hours after infection: vaginal HSV-2
Procedure: d. HSV-2 vaginal infection in mice is progressive from local acute infection of the genital area to limb paralysis and eventual death. This is a consistent, reproducible model, but is more virulent and progressive than the human genital disease. Drug efficacy is determined ultimately by extension of animal survival time, and also by the limitation of progression of disease from acute local through paralysis to death. Animals are challenged using in excess of 10 lethal equivalent doses of HSV-2. This model was used to evaluate dosing by oral gavage.

Herpes simplex virus = test: Plaque inhibition, Herpes simplex virus on MRC5 cells (Table V); type: cell-based, Herpes simplex virus; MRC5 (human diploid lung) cells
HSV-1 = test: In vitro activity against HSV-1 with and without added thymidine; type: cell-based; conditions: for EC50: read-out: ED50 (the source's name)
HSV-1 PAA ®1 = test: microbe, parasite or virus in culture; conditions: Human alphaherpesvirus 1, read-out: ED50
[7] = Human betaherpesvirus 5, AD169, MRC5, read-out: ED50, concentration required for 50% plaque inhibition
[8] = Human alphaherpesvirus 3, MRC5, read-out: ED50, concentration required for 50% plaque inhibition
[9] = treatment initiated 0 hrs after infection
[10] = treatment initiated 24 hrs after infection
[11] = treatment initiated 48 hrs after infection
[12] = treatment initiated 72 hrs after infection
[13] = MRC5, read-out: ED50, concentration required for 50% plaque inhibition
[14] = Human alphaherpesvirus 1, absence of thymidine
[15] = Human alphaherpesvirus 1, presence of thymidine (20 μg/ml)

SMILES | minimal effective concentration (Epstein-Barr virus (EBV)) [µg/mL] | sensitivity of HSV-2 Ts6 (HSV-2 TS6) | EC50 [1, 7] [µg/mL] | EC50 (Vaccinia) [µg/mL] | Avg. Survival Time ([2]; 3.1 mg/kg/day s.c.) [days] | Percent Survival ([2]; 3.1 mg/kg/day s.c.) [%] | Avg. Survival Time ([2]; 12.5 mg/kg/day s.c.) [days] | Percent Survival ([2]; 12.5 mg/kg/day s.c.) [%] | Avg. Survival Time ([2]; 50 mg/kg/day s.c.) [days] | Percent Survival ([2]; 50 mg/kg/day s.c.) [%] | solubility [3] [µg/mL] | EC50 [4, 8] [µg/mL] | converted to the triphosphate [5] [%] | Survivors/Total (HSV-2; [9]) | Survivors/Total (HSV-2; [10]) | Survivors/Total (HSV-2; [11]) | Survivors/Total (HSV-2; [12]) | therapeutic effectiveness, treatment initiated up to 72 hours after infection (HSV-2) | EC50 (Herpes simplex virus; [13]) [µg/mL] | more active than acyclovir [1] | other results
Nc1nc2c(ncn2COCCO)c(=O)[nH]1 [Acycloguanosine, 9-(2-hydroxyethoxymethyl)guanine, reference compound] | 10 to 100 | sensitive | 25 (≈ 111 µM) | > 100 | 6.4 | 6 | 6.2 | 6 | 7.7 | 0 | 1300 to 1500 (≈ 5770 to 6660 µM) | 3 to 6 (≈ 13.3 to 26.6 µM) | 31 | 1/10 | 3/10 | 5/10 | 1/10 | ineffective | 0.2 to 0.4 (≈ 0.888 to 1.78 µM) | – | Sensitivity (S) or Resistance (R) (HSV-2 TS6; HSV-2 TS6): S; Sensitivity (S) or Resistance (R) (Recombinant 6-34; Recombinant 6-34): R; Sensitivity (S) or Resistance (R) (Recombinant 6-30; Recombinant 6-30): S; Sensitivity (S) or Resistance (R) (Recombinant 6-26; Recombinant 6-26): S; Sensitivity (S) or Resistance (R) ([6]; HSV-1 wild type Strain 17): S; Sensitivity (S) or Resistance (R) (Recombinant 6-19; Recombinant 6-19): R; Avg. Survival Days (confidence interval) (HSV-2; [10]): 12.1 (8.8, 17.3) Days; Avg. Survival Days (confidence interval) (HSV-2; [11]): 12.4 (8.2, 20.7) Days; Avg. Survival Days (confidence interval) (HSV-2; [12]): 9.0 (7.1, 11.3) Days
Nc1nc2c(ncn2COC(CO)CO)c(=O)[nH]1 [Compound of Formula II, 9-(1,3-Dihydroxy-2-propoxymethyl)guanine] | 1 to 5 | resistant | – | 50 to 100 | 12.5 | 53 | 14.1 | 73 | 19.1 | 100 | 2800 | – | 93 | – | – | – | – | – | – | approximately 10 fold | EC50 ([1]; Human betaherpesvirus 5, AD169, read-out: ED50, concentration required for 50% plaque inhibition, Cytomegalovirus, MRC5): 0.8 µg/mL; EC50 (Recombinant 6-34): 0.07 µg/mL; reduction of antiviral activity by thymidine (HSV-1; 20 μg thymidine/ml): greater than 15 fold; EC50 (HSV-1; [14]): 0.8 to 1.6 µg/mL; EC50 (HSV-1; [15]): 25 µg/mL; EC50 (Recombinant 6-30): 0.08 µg/mL; EC50 ([4]; Human alphaherpesvirus 3, read-out: ED50, concentration required for 50% plaque inhibition, Varicella Zoster virus, MRC5): 3 to 6 µg/mL; EC50 (Recombinant 6-26): 0.05 µg/mL; EC50 [6]: 0.34 µg/mL; EC50 (Recombinant 6-19): 0.1 µg/mL; EC50 (HSV-1 PAA ®1): 0.1 µg/mL; EC50 (Herpes simplex virus; read-out: ED50, concentration required for 50% plaque inhibition, Herpes simplex virus, MRC5): 0.2 µg/mL
Nc1nc2c(ncn2COC2COP(=O)(O)OC2)c(=O)[nH]1 (stereo not shown) [Cyclic Monophosphate, Potassium 9-(1,3-dihydroxy-2-propoxymethyl)guanine cyclic monophosphate] | – | sensitive | 0.8 | 6 to 12 | – | – | – | – | – | – | – | 0.4 to 0.8 | – | 8/10 | 3/10 | 2/10 | 3/10 | therapeutically effective | 3 to 6 | approximately 10 fold | potency relative to compound of Formula II [1]: equipotent; EC50 (Recombinant 6-34): 6.3 µg/mL; inhibition of DNA virus (Vaccinia; vaccinia): inhibitory; EC50 (HSV-1; [14]): 12.5 µg/mL; EC50 (HSV-1; [15]): 25 to 50 µg/mL; EC50 (Recombinant 6-30): 0.3 µg/mL; solubility compared to compound of Formula II and acyclovir ([3]; qualitative statement): readily soluble; in vitro effectiveness against Varicella Zoster virus relative to acyclovir or compound of Formula II [4]: substantially more effective; more active than either compound of Formula II or acyclovir [4]: approximately 10 fold; EC50 (Recombinant 6-26): 1.1 µg/mL; EC50 [6]: 0.9 µg/mL; EC50 (Recombinant 6-19): 4.7 µg/mL; EC50 (HSV-1 PAA ®1): 3.2 µg/mL

Source: US4816447A, “Anti-viral guanine compounds” (priority 1984, dated 1989)
